Source: US20110183978A1, “Phenylpyri(mi)dinylazoles” (Bayer CropScience AG, priority 2009, published 2011)
Where two headings read alike, the source gives them in different places.

How the values were obtained:
[1] = test system: Pyrenophora teres; experiment: Example E: in vivo test on Pyrenophora teres (barley net blotch disease); settings: barley plants sprayed 24 hours before inoculation, scored after 12 days; for pest or weed control at 500 ppm: Pyrenophora teres, 288 h, read-out: % Wirkungsgrad
Procedure: In Vivo Test on Pyrenophora Teres (Barley Net Blotch Disease) An aqueous suspension of the active substance was prepared by homogenization of a mixture of acetone/Tween/dimethyl sulphoxide and subsequent dilution with water to the desired concentration. Barley plants (variety: Plaisant) are sown in cultivation dishes on a peat-pozzolanic earth substrate (50/50) at 12° C. and sprayed at the first-leaf stage (10 cm size) with the aqueous suspension described above. As a control, plants are sprayed with an aqueous solution with no active substance. After 24 hours the plants are inoculated by spraying with an aqueous suspension of Pyrenophora teres spores (12,000 spores per ml). The spores are derived from a 12 day-old culture. […] After 12 days they are scored in comparison with the control plants.

[2] = physchem
[3] = test system: Peronospora parasitica; experiment: Example A: in vivo test on Peronospora parasitica (downy mildew on white cabbage); settings: cabbage plants sprayed 24 hours before inoculation, scored after 5 days; for pest or weed control at 500 ppm: Hyaloperonospora parasitica, 120 h, read-out: % Wirkungsgrad
Procedure: In Vivo Test on Peronospora Parasitica (Downy Mildew on White Cabbage) An aqueous suspension of the active substance was prepared by homogenization of a mixture of acetone/Tween (dispersant)/dimethyl sulphoxide (DMSO) and subsequent dilution with water to the desired concentration. Cabbage plants (variety: Eminence) are sown in cultivation dishes on a peat-pozzolanic earth substrate (50/50) at 18-20° C. and sprayed at the cotyledon stage with the aqueous suspension described above. As a control, plants are sprayed with an aqueous solution with no active substance. After 24 hours, the plants are inoculated by spraying with an aqueous suspension of Peronospora parasitica spores (50,000 spores per ml). The spores are derived from infected plants. The inoculated cabbage plants are incubated for 5 days at ca. 20° C. in a moist atmosphere. After 5 days, they are scored in comparison with the control plants.

[4] = test system: Fusarium proliferatum; experiment: Example I: production of fumonisin FB1 by Fusarium proliferatum (microtitre plates); format: cell-based; settings: for inhibition at 50 µM: 120 h
[5] = test system: Leptosphaeria nodorum; experiment: Example Q: in vivo test on Leptosphaeria nodorum (glume blotch in wheat/protective); settings: Parastagonospora nodorum, 192 h, wheat, protective, assessment 8 days after inoculation, read-out: % Wirkungsgrad
Procedure: (§1) Solvent: 49 parts by weight N,N-dimethylacetamide Emulsifier: 1 part by weight alkylaryl polyglycol ethers For the preparation of a suitable active substance preparation, 1 part by weight of active substance is mixed with the stated quantities of solvent and emulsifier and the concentrate is diluted to the desired concentration with water. For the testing for protective activity, young plants are sprayed with the active substance preparation at the stated application dosage. After drying of the spray coating, the plants are sprayed with spores with a spore suspension of Leptosphaeria nodorum. […] 8 days after the inoculation, the assessment takes place.

[6] = test system: Fusarium graminearum; experiment: microbe, parasite or virus in culture; format: cell-based
[7] = test system: Septoria tritici; experiment: Example R: in vivo test on Septoria tritici (leaf blotch in wheat/protective); settings: Zymoseptoria tritici, 504 h, wheat, protective, 1000 ppm active substance, assessed 21 days after inoculation, read-out: % Wirkungsgrad (activity level)
Procedure: as §1, with “with” for “with spores with”, “Septoria tritici.” for “Leptosphaeria nodorum.”, “21” for “8”

[8] = test system: Rhynchosporium secalis; experiment: Example S: in vivo test on Rhynchosporium secalis (leaf scald in barley/protective); settings: 336 h, barley, protective, 1000 ppm active substance, assessed 14 days after inoculation, read-out: % Wirkungsgrad (activity level)
Procedure: as §1, with “Rhynchosporium secalis.” for “Leptosphaeria nodorum.”, “14” for “8”

[9] = test system: Sphaerotheca fuliginea; experiment: Example L: in vivo test on Sphaerotheca fuliginea (powdery mildew on cucumber/protective); settings: Podosphaera fuliginea, 168 h, cucumber, protective, assessment 7 days after inoculation, read-out: % Wirkungsgrad
Summary of the method: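 Young cucumber plants sprayed at stated dosage with compound in DMF/alkylaryl polyglycol ether emulsifier diluted in water; inoculated with S. fuliginea spores one day later. Kept in greenhouse at 70% relative humidity, 23° C; protective activity assessed 7 days after inoculation.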

[10] = test system: Fusarium nivale (var. majus); experiment: whole plant or invertebrate; format: in vivo; settings: Microdochium nivale, in Triticum aestivum, 120 h, read-out: % Wirkungsgrad (activity level)
[11] = test system: Aspergillus parasiticus; experiment: microbe, parasite or virus in culture; format: cell-based; settings: 168 h
[12] = test system: Botrytis cinerea; experiment: Example P: in vivo test on Botrytis cinerea (gray mould on bean/protective); settings: 48 h, bean, protective, 250 ppm active substance, assessed 2 days after inoculation, read-out: % Wirkungsgrad (activity level)
Summary of the method: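 Infection blotch size on leaves was scored 2 days after placing 2 Botrytis-colonised agar pieces per leaf. Inoculation followed drying of a protective spray applied to young plants at the stated dosage. Spray was prepared by diluting compound with solvent and alkylaryl polyglycol ether emulsifier in water.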

[13] = test system: Fusarium graminearum; experiment: whole plant or invertebrate; format: in vivo; settings: in Hordeum vulgare, 120 h, read-out: % Wirkungsgrad (activity level)
[14] = test system: Alternaria solani; experiment: Example M: in vivo test on Alternaria solani (leaf blotch disease/tomato/protective); settings: 168 h, tomato, protective, 500 ppm active substance, assessed 7 days after inoculation, read-out: % Wirkungsgrad (activity level)
Summary of the method: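 Alternaria solani infection on tomato scored 7 days post-inoculation. Before inoculation, young plants received a protective spray at the stated application dose; formulation was compound mixed with N,N-dimethylformamide and emulsifier, water-diluted.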

[15] = test system: Venturia inaequalis; experiment: Example O: in vivo test on Venturia inaequalis (apple scab/protective); settings: 240 h, protective, assessment 10 days after inoculation, read-out: % Wirkungsgrad
Summary of the method: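 Young plants received a preventive spray of compound formulated as an emulsifier-containing aqueous dilution at the given application rate, then were inoculated with apple scab fungus. Disease was scored 10 days post-inoculation.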

[16] = test system: Rhizoctonia solani; experiment: Example W: in vivo test on Rhizoctonia solani (sheath blight in rice/protective); settings: 96 h, rice, protective, 250 ppm active substance, assessed 4 days after inoculation, read-out: % Activity level
Procedure: Solvent: 28.5 parts by weight acetone Emulsifier: 1.5 parts by weight alkylaryl polyglycol ethers For the preparation of a suitable active substance preparation, 1 part by weight of active substance is mixed with the stated quantities of solvent and emulsifier and the concentrate is diluted to the desired concentration with water. For the testing for protective activity, young rice plants are sprayed with the active substance preparation at the stated application dosage. One day after the treatment, the plants are inoculated with hyphae of Rhizoctonia solani. […] 4 days after the inoculation, the assessment takes place.

[17] = test system: Plasmopara viticola; experiment: Example N: in vivo test on Plasmopara viticola (downy mildew, vine/protective); settings: 144 h, vine, protective, assessment 6 days after inoculation, read-out: % Wirkungsgrad
Summary of the method: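 Assessment of downy mildew on vines took place 6 days post-inoculation, after 1 day of moist incubation. Before infection, the young plants received a protective spray of compound emulsified with alkylaryl polyglycol ethers and diluted with water to the stated application rate.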

[18] = test system: Pyricularia oryzae; experiment: whole plant or invertebrate; format: in vivo; settings: 120 h, read-out: % Activity level
[19] = test system: Cochliobolus miyabeanus; experiment: Example X: in vivo test on Cochliobolus miyabeanus (brown spot disease, rice/protective); settings: Bipolaris oryzae, 96 h, read-out: % Activity level
[20] = test system: Sphaerotheca fuliginea; experiment: Example D: in vivo test on Sphaerotheca fuliginea (powdery mildew on cucumber); settings: Podosphaera fuliginea, 288 h, cucumber plants sprayed 24 hours before inoculation, scored after 12 days, read-out: % Wirkungsgrad
Summary of the method: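 Scoring took place 12 days after spore inoculation (100,000 spores/ml, at ca. 20/25° C., 60/70% RH) and was made against plants sprayed without active substance. Inoculation followed by 24 hours a spray of water-diluted acetone/Tween/DMSO compound suspension onto Z10 cotyledon-stage cucumbers.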

[21] = LogPA (logP of the stated pure compound or, in a mixture, of the main isomer, 1-substituted 3-aryl-1H-pyrazole)
[22] = Fusarium proliferatum growth, OD 620, 5 days, read-out: % Inhibition des Pilzwachstums bei 50 μM
[23] = Fusarium proliferatum, 5 days at 20° C., HPLC-MS/MS, read-out: % Inhibition der FB1 produktion bei 50 μM
[24] = 72 h, read-out: % Inhibition des Pilzwachstums bei 50 μM
[25] = 168 h, read-out: % Inhibition der DON/AcDON produktion bei 50 μM

CCC(=O)Nc1cc(-c2cn(C3CCCCO3)nc2-c2ccc(F)cc2)ccn1 (stereo not drawn) [Compound 19]
pest or weed control at 500 ppm [1]: 83% | chromatographic logP [2, 21]: 2.32 | pest or weed control at 500 ppm [3]: 100% | inhibition at 50 µM [4, 22]: 68% | inhibition at 50 µM [4, 23]: 100%

CC(C)Cn1cc(-c2ccnc(NC(=O)C(C)C)c2)c(-c2ccc(F)cc2)n1 [Compound 87]
pest or weed control at 1000 ppm [5]: 88% | inhibition at 50 µM [6, 24]: 97% | inhibition at 50 µM [6, 25]: 100% | pest or weed control at 1000 ppm [7]: 100% | pest or weed control at 1000 ppm [8]: 88% | pest or weed control at 500 ppm [9]: 100% | pest or weed control at 1000 ppm [10]: 92% | inhibition at 50 µM ([11]; 50 μM, 7 days at 20° C., read-out: Inhibition der Aflatoxin produktion bei 50 μM): 100% | inhibition at 50 µM ([11]; read-out: % Inhibition des Pilzwachstums bei 50 μM): 97% | pest or weed control at 250 ppm [12]: 100% | chromatographic logP [2, 21]: 2.89 | pest or weed control at 1000 ppm [13]: 100% | pest or weed control at 500 ppm [14]: 95% | pest or weed control at 100 ppm [15]: 95% | inhibition at 50 µM [4, 22]: 83% | inhibition at 50 µM [4, 23]: 100%

CC(C)=CCn1cc(-c2ccncc2)c(-c2c(F)cccc2F)n1 [Compound 7]
pest or weed control at 500 ppm [1]: 73% | chromatographic logP [2, 21]: 1.69

Fc1ccc(-c2nn(CC(F)F)cc2-c2ccncc2)cc1 [Compound 169]
pest or weed control at 250 ppm [16]: 100% | pest or weed control at 1000 ppm [5]: 100% | inhibition at 50 µM [6, 24]: 101% | inhibition at 50 µM [6, 25]: 100% | pest or weed control at 1000 ppm [7]: 100% | pest or weed control at 1000 ppm [8]: 100% | pest or weed control at 500 ppm [9]: 89% | pest or weed control at 1000 ppm [10]: 71% | pest or weed control at 100 ppm [17]: 96% | pest or weed control at 250 ppm [12]: 100% | chromatographic logP ([2]; LogPA): 1 | pest or weed control at 1000 ppm [13]: 100% | pest or weed control at 100 ppm [15]: 99%

CC(C)=CCn1cc(-c2ccncc2)c(-c2ccc(F)cc2)n1 [Compound 30]
pest or weed control at 250 ppm [16]: 95% | pest or weed control at 250 ppm [18]: 80% | chromatographic logP [2, 21]: 2.11 | pest or weed control at 500 ppm [14]: 90%

O=C(Nc1cc(-c2cn(CC(F)F)nc2-c2ccc(F)cc2)ccn1)C1CC1 [Compound 217]
pest or weed control at 250 ppm [16]: 100% | pest or weed control at 250 ppm [18]: 85% | pest or weed control at 500 ppm [9]: 100% | pest or weed control at 250 ppm [19]: 85% | pest or weed control at 250 ppm [12]: 95% | chromatographic logP ([2]; LogPA): 2.07 | pest or weed control at 100 ppm [15]: 98% | inhibition at 50 µM [4, 22]: 97% | inhibition at 50 µM [4, 23]: 100%

N#Cc1ccccc1Cn1cc(-c2ccncc2)c(-c2ccc(F)cc2)n1 [Compound 136]
pest or weed control at 250 ppm [16]: 97% | pest or weed control at 500 ppm [1]: 71% | pest or weed control at 250 ppm [18]: 80% | pest or weed control at 500 ppm [9]: 73% | chromatographic logP [2, 21]: 1.49 | pest or weed control at 500 ppm [14]: 95% | pest or weed control at 500 ppm [3]: 94% | pest or weed control at 500 ppm [20]: 91%

C=CCNc1nccc(-c2cn(CC(C)C)nc2-c2ccc(F)cc2)n1 [Compound 150]
pest or weed control at 500 ppm [1]: 86% | inhibition at 50 µM [6, 24]: 97% | inhibition at 50 µM [6, 25]: 99% | pest or weed control at 500 ppm [9]: 93% | chromatographic logP [2, 21]: 2.46 | pest or weed control at 500 ppm [14]: 95% | pest or weed control at 500 ppm [3]: 100% | pest or weed control at 500 ppm [20]: 96%

CC(C)Cn1ncc(-c2ccncc2)c1-c1ccc(F)cc1 [Compound 24]
pest or weed control at 500 ppm [1]: 92% | chromatographic logP [2, 21]: 1.59 | pest or weed control at 500 ppm [20]: 88%

CC(C)n1cc(-c2ccncc2)c(-c2ccc(F)cc2)n1 [Compound 89]
pest or weed control at 250 ppm [16]: 92% | pest or weed control at 1000 ppm [5]: 83% | pest or weed control at 1000 ppm [7]: 100% | pest or weed control at 500 ppm [9]: 88% | pest or weed control at 1000 ppm [10]: 92% | pest or weed control at 100 ppm [17]: 73% | pest or weed control at 250 ppm [19]: 85% | pest or weed control at 250 ppm [12]: 100% | chromatographic logP [2, 21]: 1.16 | pest or weed control at 1000 ppm [13]: 100% | pest or weed control at 500 ppm [14]: 89% | pest or weed control at 100 ppm [15]: 100%

CC(C)C(=O)Nc1cc(-c2cn(C3CCCCO3)nc2-c2ccc(F)cc2)ccn1 (stereo not drawn) [Compound 21]
% Wirkungsgrad ([1]; 500 ppm): 73% | % Wirkungsgrad ([3]; 500 ppm): 100% | % Inhibition der FB1 produktion bei 50 μM ([4]; 5 days at 20° C., HPLC-MS/MS): 100% | % Inhibition des Pilzwachstums bei 50 μM ([4]; Fusarium proliferatum growth, OD 620, 5 days): 55%
